Data published in ChEMBL document CHEMBL4507281, “Data for DCP probe BI-4394” (2021).

Experiments:
[1] = target: Dual specificity mitogen-activated protein kinase kinase 5 (Homo sapiens) (UniProt Q13163); conditions: Compound concentration 100.0 nM
[2] = target: T1, Inhibitor of nuclear factor kappa-B kinase subunit beta (Homo sapiens) (UniProt O14920); conditions: Compound concentration 100.0 nM
T1 sequence (whole entry): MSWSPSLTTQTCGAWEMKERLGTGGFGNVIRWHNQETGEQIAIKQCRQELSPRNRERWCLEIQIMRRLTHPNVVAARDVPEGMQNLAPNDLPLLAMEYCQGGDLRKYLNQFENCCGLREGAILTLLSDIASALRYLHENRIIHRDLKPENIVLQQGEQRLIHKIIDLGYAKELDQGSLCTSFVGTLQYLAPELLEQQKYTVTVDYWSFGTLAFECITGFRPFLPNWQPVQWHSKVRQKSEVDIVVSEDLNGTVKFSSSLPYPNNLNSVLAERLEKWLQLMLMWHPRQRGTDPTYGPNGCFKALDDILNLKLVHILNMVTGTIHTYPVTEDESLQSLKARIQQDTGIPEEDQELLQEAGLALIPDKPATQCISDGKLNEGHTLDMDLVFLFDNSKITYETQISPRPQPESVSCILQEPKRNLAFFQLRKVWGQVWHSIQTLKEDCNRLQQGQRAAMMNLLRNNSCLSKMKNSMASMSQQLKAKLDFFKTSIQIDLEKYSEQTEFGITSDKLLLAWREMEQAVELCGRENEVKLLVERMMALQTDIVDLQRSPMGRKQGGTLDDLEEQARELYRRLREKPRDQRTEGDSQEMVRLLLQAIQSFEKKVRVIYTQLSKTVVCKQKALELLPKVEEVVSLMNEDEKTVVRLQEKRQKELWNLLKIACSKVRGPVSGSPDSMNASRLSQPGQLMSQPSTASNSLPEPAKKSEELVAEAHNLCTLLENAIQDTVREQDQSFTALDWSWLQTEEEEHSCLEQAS

[3] = target: Ephrin type-B receptor 4 (Homo sapiens) (UniProt P54760); conditions: Compound concentration 100.0 nM
[4] = target: Serine/threonine-protein kinase PLK2 (Homo sapiens) (UniProt Q9NYY3); conditions: Compound concentration 100.0 nM
[5] = target: Angiopoietin-1 receptor (Homo sapiens) (UniProt Q02763); conditions: Compound concentration 100.0 nM
[6] = target: Mitogen-activated protein kinase 1 (Homo sapiens) (UniProt P28482); conditions: Compound concentration 100.0 nM
[7] = target: 5'-AMP-activated protein kinase catalytic subunit alpha-2 (Homo sapiens) (UniProt P54646); conditions: Compound concentration 100.0 nM
[8] = target: Cyclin-dependent kinase 13 (Homo sapiens) (UniProt Q14004); conditions: Compound concentration 100.0 nM
[9] = target: Ribosomal protein S6 kinase alpha-4 (Homo sapiens) (UniProt O75676); conditions: Compound concentration 100.0 nM
[10] = target: Serine/threonine-protein kinase TNNI3K (Homo sapiens) (UniProt Q59H18); conditions: Compound concentration 100.0 nM
[11] = target: Ribosomal protein S6 kinase alpha-2 (Homo sapiens) (UniProt Q15349); conditions: Compound concentration 100.0 nM
[12] = target: Myosin-IIIb (Homo sapiens) (UniProt Q8WXR4); conditions: Compound concentration 100.0 nM
[13] = target: Leucine-rich repeat serine/threonine-protein kinase 2 (Homo sapiens) (UniProt Q5S007); conditions: Compound concentration 100.0 nM
[14] = target: Bone morphogenetic protein receptor type-1A (Homo sapiens) (UniProt P36894); conditions: Compound concentration 100.0 nM
[15] = target: Sigma non-opioid intracellular receptor 1 (Homo sapiens) (UniProt Q99720); conditions: Compound concentration 10.0 uM
[16] = tested on: Mast/stem cell growth factor receptor Kit (Homo sapiens), P10721 [D816H]; conditions: Compound concentration 100.0 nM
[17] = target: STE20/SPS1-related proline-alanine-rich protein kinase (Homo sapiens) (UniProt Q9UEW8); conditions: Compound concentration 100.0 nM
[18] = tested on: Receptor-type tyrosine-protein kinase FLT3 (Homo sapiens), P36888 [N841I]; conditions: Compound concentration 100.0 nM
[19] = target: Insulin receptor (Homo sapiens) (UniProt P06213); conditions: Compound concentration 100.0 nM
[20] = target: Dual serine/threonine and tyrosine protein kinase (Homo sapiens) (UniProt Q6XUX3); conditions: Compound concentration 100.0 nM
[21] = target: Tyrosine-protein kinase CSK (Homo sapiens) (UniProt P41240); conditions: Compound concentration 100.0 nM
[22] = target: Serine/threonine-protein kinase 32C (Homo sapiens) (UniProt Q86UX6); conditions: Compound concentration 100.0 nM
[23] = target: Non-receptor tyrosine-protein kinase TNK1 (Homo sapiens) (UniProt Q13470); conditions: Compound concentration 100.0 nM
[24] = target: Cyclin-dependent kinase 18 (Homo sapiens) (UniProt Q07002); conditions: Compound concentration 100.0 nM
[25] = target: Casein kinase II subunit alpha (Homo sapiens) (UniProt P68400); conditions: Compound concentration 100.0 nM
[26] = target: Testis-specific serine/threonine-protein kinase 1 (Homo sapiens) (UniProt Q9BXA7); conditions: Compound concentration 100.0 nM
[27] = target: Ankyrin repeat and protein kinase domain-containing protein 1 (Homo sapiens) (UniProt Q8NFD2); conditions: Compound concentration 100.0 nM
[28] = target: ALK tyrosine kinase receptor (Homo sapiens) (UniProt Q9UM73); conditions: Compound concentration 100.0 nM
[29] = target: Calcium/calmodulin-dependent protein kinase type IV (Homo sapiens) (UniProt Q16566); conditions: Compound concentration 100.0 nM
[30] = target: 5-hydroxytryptamine receptor 1B (Homo sapiens) (UniProt P28222); conditions: Compound concentration 10.0 uM
[31] = target: Alpha-1B adrenergic receptor (Homo sapiens) (UniProt P35368); conditions: Compound concentration 10.0 uM
[32] = tested on: Hepatocyte growth factor receptor (Homo sapiens), P08581 [M1250T]; conditions: Compound concentration 100.0 nM
[33] = target: Tyrosine-protein kinase ABL2 (Homo sapiens) (UniProt P42684); conditions: Compound concentration 100.0 nM
[34] = target: Serine/threonine-protein kinase TAO2 (Homo sapiens) (UniProt Q9UL54); conditions: Compound concentration 100.0 nM
[35] = tested on: Receptor-type tyrosine-protein kinase FLT3 (Homo sapiens), P36888 [K663Q]; conditions: Compound concentration 100.0 nM

Sequence of Cyclin-dependent kinase 18 (Homo sapiens) (Q07002 whole entry): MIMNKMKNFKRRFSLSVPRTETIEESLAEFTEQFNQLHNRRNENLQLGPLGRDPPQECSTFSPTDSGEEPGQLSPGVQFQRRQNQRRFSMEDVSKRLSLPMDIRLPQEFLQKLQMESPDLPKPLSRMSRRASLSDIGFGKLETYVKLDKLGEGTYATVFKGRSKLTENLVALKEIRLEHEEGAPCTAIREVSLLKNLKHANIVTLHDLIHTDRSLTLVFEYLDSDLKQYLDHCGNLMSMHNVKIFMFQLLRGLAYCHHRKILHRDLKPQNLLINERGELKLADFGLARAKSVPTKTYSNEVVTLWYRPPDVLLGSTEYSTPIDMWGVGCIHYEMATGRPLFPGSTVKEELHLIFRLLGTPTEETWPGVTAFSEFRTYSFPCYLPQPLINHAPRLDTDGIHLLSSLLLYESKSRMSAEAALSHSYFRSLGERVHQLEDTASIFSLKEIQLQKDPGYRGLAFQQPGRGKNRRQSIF
Sequence of Tyrosine-protein kinase ABL2 (Homo sapiens) (P42684 whole entry): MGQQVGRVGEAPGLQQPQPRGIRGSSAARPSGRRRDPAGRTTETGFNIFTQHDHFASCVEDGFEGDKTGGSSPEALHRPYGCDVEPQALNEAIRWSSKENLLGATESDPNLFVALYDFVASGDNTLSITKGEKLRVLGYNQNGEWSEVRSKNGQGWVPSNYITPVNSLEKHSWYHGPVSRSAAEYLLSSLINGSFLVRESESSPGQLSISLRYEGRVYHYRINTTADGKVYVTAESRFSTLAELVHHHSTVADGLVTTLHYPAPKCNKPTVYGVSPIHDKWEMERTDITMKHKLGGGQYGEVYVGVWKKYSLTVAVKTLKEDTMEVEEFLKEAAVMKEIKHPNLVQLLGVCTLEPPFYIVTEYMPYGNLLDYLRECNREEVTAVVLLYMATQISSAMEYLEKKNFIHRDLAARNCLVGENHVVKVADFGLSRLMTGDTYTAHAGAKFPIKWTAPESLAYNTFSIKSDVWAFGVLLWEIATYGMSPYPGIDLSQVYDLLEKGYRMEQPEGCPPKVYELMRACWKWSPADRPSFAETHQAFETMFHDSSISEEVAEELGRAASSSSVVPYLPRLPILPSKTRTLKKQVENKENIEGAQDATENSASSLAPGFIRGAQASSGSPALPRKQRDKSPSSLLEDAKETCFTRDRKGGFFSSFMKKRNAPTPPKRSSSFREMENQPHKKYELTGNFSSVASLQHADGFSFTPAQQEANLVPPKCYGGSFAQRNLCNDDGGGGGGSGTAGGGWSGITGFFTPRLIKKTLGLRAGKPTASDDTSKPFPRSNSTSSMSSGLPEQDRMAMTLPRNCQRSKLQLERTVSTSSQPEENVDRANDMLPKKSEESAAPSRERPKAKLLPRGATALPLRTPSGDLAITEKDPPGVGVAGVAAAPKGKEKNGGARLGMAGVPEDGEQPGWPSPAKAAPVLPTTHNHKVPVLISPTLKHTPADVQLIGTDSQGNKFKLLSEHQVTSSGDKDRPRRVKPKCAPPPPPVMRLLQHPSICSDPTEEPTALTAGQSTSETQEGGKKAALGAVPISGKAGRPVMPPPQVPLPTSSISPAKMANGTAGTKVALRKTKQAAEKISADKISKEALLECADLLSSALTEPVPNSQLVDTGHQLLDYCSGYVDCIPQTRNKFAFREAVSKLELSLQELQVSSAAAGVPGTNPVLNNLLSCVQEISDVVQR
Sequence of Angiopoietin-1 receptor (Homo sapiens) (Q02763 whole entry): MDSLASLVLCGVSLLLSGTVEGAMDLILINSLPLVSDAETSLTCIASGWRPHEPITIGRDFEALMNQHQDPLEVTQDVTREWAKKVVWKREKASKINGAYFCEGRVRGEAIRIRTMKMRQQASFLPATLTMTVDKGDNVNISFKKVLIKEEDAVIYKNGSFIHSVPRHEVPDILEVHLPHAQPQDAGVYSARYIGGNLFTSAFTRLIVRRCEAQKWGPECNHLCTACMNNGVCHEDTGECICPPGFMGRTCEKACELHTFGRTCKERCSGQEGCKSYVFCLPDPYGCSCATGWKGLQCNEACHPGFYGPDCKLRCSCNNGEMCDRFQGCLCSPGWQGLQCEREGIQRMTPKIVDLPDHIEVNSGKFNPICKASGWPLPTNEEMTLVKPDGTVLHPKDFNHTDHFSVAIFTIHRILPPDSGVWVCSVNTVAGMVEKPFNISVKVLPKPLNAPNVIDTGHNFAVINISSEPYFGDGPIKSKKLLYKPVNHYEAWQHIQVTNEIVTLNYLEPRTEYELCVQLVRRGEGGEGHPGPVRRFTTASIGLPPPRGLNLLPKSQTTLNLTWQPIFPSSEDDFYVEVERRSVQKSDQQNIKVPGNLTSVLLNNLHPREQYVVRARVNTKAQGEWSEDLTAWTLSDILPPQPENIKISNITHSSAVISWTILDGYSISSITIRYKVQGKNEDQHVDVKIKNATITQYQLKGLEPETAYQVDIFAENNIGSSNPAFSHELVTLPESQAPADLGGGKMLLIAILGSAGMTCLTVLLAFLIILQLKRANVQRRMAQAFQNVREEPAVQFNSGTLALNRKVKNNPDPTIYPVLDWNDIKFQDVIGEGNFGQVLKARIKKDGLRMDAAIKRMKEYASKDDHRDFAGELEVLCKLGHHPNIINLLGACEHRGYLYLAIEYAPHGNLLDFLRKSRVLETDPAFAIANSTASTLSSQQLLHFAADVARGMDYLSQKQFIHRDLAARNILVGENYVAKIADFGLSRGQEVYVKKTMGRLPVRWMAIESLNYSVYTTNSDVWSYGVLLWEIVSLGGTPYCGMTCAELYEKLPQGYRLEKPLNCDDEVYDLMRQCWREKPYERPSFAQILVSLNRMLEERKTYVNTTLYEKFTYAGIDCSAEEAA
Sequence of Ribosomal protein S6 kinase alpha-2 (Homo sapiens) (Q15349 whole entry): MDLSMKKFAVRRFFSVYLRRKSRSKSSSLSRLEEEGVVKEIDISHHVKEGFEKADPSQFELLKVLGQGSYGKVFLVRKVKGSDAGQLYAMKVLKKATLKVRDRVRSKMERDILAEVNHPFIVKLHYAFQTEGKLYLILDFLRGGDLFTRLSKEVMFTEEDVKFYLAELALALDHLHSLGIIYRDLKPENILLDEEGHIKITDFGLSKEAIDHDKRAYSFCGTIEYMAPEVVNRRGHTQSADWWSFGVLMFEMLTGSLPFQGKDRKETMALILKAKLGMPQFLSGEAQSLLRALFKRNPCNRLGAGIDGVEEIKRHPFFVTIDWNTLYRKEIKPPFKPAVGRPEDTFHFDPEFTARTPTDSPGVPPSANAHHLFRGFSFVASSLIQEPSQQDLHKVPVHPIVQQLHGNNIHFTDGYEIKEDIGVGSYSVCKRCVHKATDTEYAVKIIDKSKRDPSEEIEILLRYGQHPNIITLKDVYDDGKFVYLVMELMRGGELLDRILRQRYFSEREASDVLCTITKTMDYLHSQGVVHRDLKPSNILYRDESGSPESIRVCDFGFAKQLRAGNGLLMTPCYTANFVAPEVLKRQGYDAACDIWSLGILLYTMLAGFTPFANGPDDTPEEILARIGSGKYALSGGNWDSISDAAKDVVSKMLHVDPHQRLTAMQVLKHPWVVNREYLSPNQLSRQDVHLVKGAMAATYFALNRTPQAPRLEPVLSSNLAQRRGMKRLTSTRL
Sequence of Bone morphogenetic protein receptor type-1A (Homo sapiens) (P36894 whole entry): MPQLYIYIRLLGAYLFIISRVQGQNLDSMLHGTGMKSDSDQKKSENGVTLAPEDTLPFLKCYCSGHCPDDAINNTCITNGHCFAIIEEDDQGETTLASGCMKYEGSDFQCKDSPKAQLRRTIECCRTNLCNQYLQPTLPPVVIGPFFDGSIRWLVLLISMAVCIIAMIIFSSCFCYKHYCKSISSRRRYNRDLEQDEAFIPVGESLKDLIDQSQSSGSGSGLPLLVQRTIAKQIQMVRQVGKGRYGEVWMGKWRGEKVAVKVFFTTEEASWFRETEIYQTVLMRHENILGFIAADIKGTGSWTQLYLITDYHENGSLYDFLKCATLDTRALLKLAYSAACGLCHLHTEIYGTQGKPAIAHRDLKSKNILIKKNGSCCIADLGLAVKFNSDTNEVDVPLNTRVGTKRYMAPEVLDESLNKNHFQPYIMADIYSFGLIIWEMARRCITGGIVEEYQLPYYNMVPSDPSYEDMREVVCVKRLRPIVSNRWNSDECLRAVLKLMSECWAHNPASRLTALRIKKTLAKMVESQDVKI
Sequence of Testis-specific serine/threonine-protein kinase 1 (Homo sapiens) (Q9BXA7 whole entry, the tested form may be a part): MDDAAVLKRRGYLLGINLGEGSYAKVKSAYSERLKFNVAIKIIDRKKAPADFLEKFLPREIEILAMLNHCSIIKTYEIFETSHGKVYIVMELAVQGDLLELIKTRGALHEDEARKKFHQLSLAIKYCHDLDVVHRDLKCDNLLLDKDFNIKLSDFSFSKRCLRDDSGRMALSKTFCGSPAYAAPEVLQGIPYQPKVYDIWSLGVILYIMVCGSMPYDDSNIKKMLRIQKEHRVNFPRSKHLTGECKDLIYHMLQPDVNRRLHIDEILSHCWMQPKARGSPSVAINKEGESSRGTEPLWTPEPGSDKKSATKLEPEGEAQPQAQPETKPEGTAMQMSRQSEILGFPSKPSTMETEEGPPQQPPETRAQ
Sequence of Mitogen-activated protein kinase 1 (Homo sapiens) (P28482 whole entry): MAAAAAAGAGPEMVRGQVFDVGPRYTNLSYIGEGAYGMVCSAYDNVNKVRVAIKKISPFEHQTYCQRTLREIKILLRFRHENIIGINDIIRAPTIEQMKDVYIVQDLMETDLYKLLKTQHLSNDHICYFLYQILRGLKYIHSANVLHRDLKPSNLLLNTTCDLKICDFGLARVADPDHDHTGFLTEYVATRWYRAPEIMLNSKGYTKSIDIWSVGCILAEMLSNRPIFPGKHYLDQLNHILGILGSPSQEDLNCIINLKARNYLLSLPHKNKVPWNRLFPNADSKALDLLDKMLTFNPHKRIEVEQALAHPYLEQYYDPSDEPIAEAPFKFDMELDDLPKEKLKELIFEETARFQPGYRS
Sequence of Sigma non-opioid intracellular receptor 1 (Homo sapiens) (Q99720 whole entry): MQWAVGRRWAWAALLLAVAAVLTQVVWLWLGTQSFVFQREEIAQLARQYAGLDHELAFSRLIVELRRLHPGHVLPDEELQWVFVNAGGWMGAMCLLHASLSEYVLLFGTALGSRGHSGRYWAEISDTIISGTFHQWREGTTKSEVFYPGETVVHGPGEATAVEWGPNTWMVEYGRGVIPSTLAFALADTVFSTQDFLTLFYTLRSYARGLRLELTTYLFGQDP

CCOC(=O)c1cc2cc(-c3cc(C(=O)NCc4ccc(C(=O)O)cc4)nn3C)ccc2[nH]1 [BI 4394]
inactive: residual activity [1] 82% | residual activity [2] 100% | residual activity [3] 99% | residual activity [4] 80% | residual activity [5] 83% | residual activity [6] 99% | residual activity [7] 88% | residual activity [8] 83% | residual activity [9] 88% | residual activity [10] 100% | residual activity [11] 84% | residual activity [12] 84% | residual activity [13] 81% | residual activity [14] 87% | inhibition [15] 14.6% | residual activity [16] 75% | residual activity [17] 85% | residual activity [18] 81% | residual activity [19] 81% | residual activity [20] 69% | residual activity [21] 74% | residual activity [22] 100% | residual activity [23] 88% | residual activity [24] 100% | residual activity [25] 81% | residual activity [26] 100% | residual activity [27] 100% | residual activity [28] 98% | residual activity [29] 95% | inhibition [30] 6.12% | inhibition [31] -1.29% | residual activity [32] 87% | residual activity [33] 100% | residual activity [34] 90% | residual activity [35] 90%

Cn1nc(C(=O)NCc2ccc(C(=O)O)cc2)cc1-c1ccc2[nH]ccc2c1 [BI 4395]
inactive: residual activity [1] 63% | residual activity [2] 93% | residual activity [3] 100% | residual activity [4] 100% | residual activity [5] 82% | residual activity [6] 94% | residual activity [7] 91% | residual activity [8] 72% | residual activity [9] 73% | residual activity [10] 100% | residual activity [11] 98% | residual activity [12] 100% | residual activity [13] 75% | residual activity [14] 94% | inhibition [15] 1.99% | residual activity [16] 81% | residual activity [17] 90% | residual activity [18] 100% | residual activity [19] 100% | residual activity [20] 96% | residual activity [21] 94% | residual activity [22] 100% | residual activity [23] 100% | residual activity [24] 97% | residual activity [25] 68% | residual activity [26] 100% | residual activity [27] 100% | residual activity [28] 80% | residual activity [29] 92% | inhibition [30] 5.48% | inhibition [31] -6.1% | residual activity [32] 91% | residual activity [33] 93% | residual activity [34] 82% | residual activity [35] 86%
